Laboratory results reported in US20100267561A1, “HERBICIDAL PYRIDAZINONE DERIVATIVES” (priority 2007, published 2010).

Key:
Experiment in all cases: Test E pre-/postemergence plant response
Type in all cases: in vivo
[1] = test system: broadleaf signalgrass (Brachiaria platyphylla); conditions: scale 0 to 100
Description: (§1) Seeds of plant species selected from bermudagrass (Cynodon dactylon), Surinam grass (Brachiaria decumbens), large crabgrass (Digitaria sanguinalis), green foxtail (Setaria viridis), goosegrass (Eleusine indica), johnsongrass (Sorghum halepense), kochia (Kochia scoparia), pitted morningglory (Ipomoea lacunosa), purple nutsedge (Cyperus rotundus), common ragweed (Ambrosia elation), black mustard (Brassica nigra), guineagrass (Panicum maximum), dallisgrass (Paspalum dilatatum), barnyardgrass (Echinochloa crus-galli), southern (S.) sandbur (Cenchrus echinatus), common sowthistle (Sonchus oleraceous), prickly sida (Sida spinosa), Italian ryegrass (Lolium multiflorum), common purslane (Portulaca oleracea), broadleaf signalgrass (Brachiaria platyphylla), common groundsel (Senecio vulgaris), common chickweed (Stellaria media), Virginia (V.) dayflower (Commelina virginica), tropical (T.) spiderwort (Commelina benghalensis), annual bluegrass (Poa annua), naked crabgrass (Digitaria nuda), itchgrass (Rottboellia cochinchinensis), quackgrass (Elytrigia repens), Canada horseweed (Conyza canadensis), field bindweed (Convolvulus arvensis), spanishneedles (Bidens bipinnata), common mallow (Malva sylvestris) and Russian thistle (Salsola kali) were planted and treated preemergence with test chemicals formulated in a non-phytotoxic solvent mixture which included a surfactant. At the same time, plants selected from these weed species were treated with postemergence applications of some of the test chemicals formulated in the same manner. Plants ranged in height from 2 to 18 cm (1- to 4-leaf stage) for postemergence treatments.
(§2) Treated plants and controls were maintained in a greenhouse for 14 to 21 days, after which time all species were compared to controls and visually evaluated. Plant response ratings, summarized in Table E, are based on a scale of 0 to 100 where 0 is no effect and 100 is complete control. A dash (-) response means no test result.

[2] = test system: naked crabgrass (Digitaria nuda); conditions: scale 0 to 100
Description: as §1, §2

[3] = test system: common groundsel (Senecio vulgaris); conditions: scale 0 to 100
Description: as §1, §2

[4] = test system: common purslane (Portulaca oleracea); conditions: scale 0 to 100
Description: as §1, §2

[5] = test system: Italian ryegrass (Lolium multiflorum); conditions: scale 0 to 100
Description: as §1, §2

[6] = test system: dallisgrass (Paspalum dilatatum); conditions: scale 0 to 100
Description: as §1, §2

[7] = test system: southern (S.) sandbur (Cenchrus echinatus); conditions: scale 0 to 100
Description: as §1, §2

[8] = test system: quackgrass (Elytrigia repens); conditions: scale 0 to 100
Description: as §1, §2

[9] = test system: large crabgrass (Digitaria sanguinalis); conditions: scale 0 to 100
Description: as §1, §2

[10] = test system: common chickweed (Stellaria media); conditions: 4 g ai/ha, Postemergence, scale 0 to 100
Description: as §1, §2

[11] = test system: black mustard (Brassica nigra); conditions: scale 0 to 100
Description: as §1, §2

`CCc1cc(-c2ccc(C(F)(F)F)cc2)nn1-c1c(OS(C)(=O)=O)cnn(C)c1=O` [Compound 19] was tested, and the “Plant response rating, Signalgrass” value ([1]; 4 g ai/ha, Postemergence) was 65, the “Plant response rating, Signalgrass” value ([1]; 16 g ai/ha, Preemergence) was 80 and the “Plant response rating, Signalgrass” value ([1]; 31 g ai/ha, Preemergence) was 80. The “Plant response rating, Signalgrass” value ([1]; Postemergence, 8 g ai/ha) was 80, the “Plant response rating, Signalgrass” value ([1]; Postemergence, 16 g ai/ha) was 98 and the “Plant response rating, Signalgrass” value ([1]; Postemergence, 31 g ai/ha) was 98. The “Plant response rating, Signalgrass” value ([1]; Preemergence, 4 g ai/ha) was 40, the “Plant response rating, Crabgrass, Naked” value ([2]; 4 g ai/ha, Postemergence) was 40 and the “Plant response rating, Crabgrass, Naked” value ([2]; 8 g ai/ha, Preemergence) was 98. For the same compound, the “Plant response rating, Crabgrass, Naked” value ([2]; 31 g ai/ha, Preemergence) was 98, the “Plant response rating, Crabgrass, Naked” value ([2]; Postemergence, 8 g ai/ha) was 85 and the “Plant response rating, Crabgrass, Naked” value ([2]; Postemergence, 16 g ai/ha) was 90. The “Plant response rating, Crabgrass, Naked” value ([2]; Postemergence, 31 g ai/ha) was 98, the “Plant response rating, Crabgrass, Naked” value ([2]; Preemergence, 4 g ai/ha) was 35 and the “Plant response rating, Groundsel” value ([3]; 4 g ai/ha, Postemergence) was 0. The “Plant response rating, Groundsel” value ([3]; 16 g ai/ha, Preemergence) was 0, the “Plant response rating, Groundsel” value ([3]; 31 g ai/ha, Preemergence) was 0 and the “Plant response rating, Groundsel” value ([3]; Postemergence, 8 g ai/ha) was 0. The “Plant response rating, Groundsel” value ([3]; Postemergence, 16 g ai/ha) was 0, the “Plant response rating, Groundsel” value ([3]; Postemergence, 31 g ai/ha) was 0 and the “Plant response rating, Groundsel” value ([3]; Preemergence, 4 g ai/ha) was 0. The “Plant response rating, Purslane” value ([4]; 4 g ai/ha, Postemergence) was 0, the “Plant response rating, Purslane” value ([4]; 16 g ai/ha, Preemergence) was 0 and the “Plant response rating, Purslane” value ([4]; 31 g ai/ha, Preemergence) was 0. The “Plant response rating, Purslane” value ([4]; Postemergence, 8 g ai/ha) was 0, the “Plant response rating, Purslane” value ([4]; Postemergence, 16 g ai/ha) was 0 and the “Plant response rating, Purslane” value ([4]; Postemergence, 31 g ai/ha) was 0. The “Plant response rating, Purslane” value ([4]; Preemergence, 4 g ai/ha) was 0, the “Plant response rating, Ryegrass, Italian” value ([5]; 4 g ai/ha, Postemergence) was 50 and the “Plant response rating, Ryegrass, Italian” value ([5]; 16 g ai/ha, Preemergence) was 100. The “Plant response rating, Ryegrass, Italian” value ([5]; 31 g ai/ha, Preemergence) was 100, the “Plant response rating, Ryegrass, Italian” value ([5]; Postemergence, 8 g ai/ha) was 90 and the “Plant response rating, Ryegrass, Italian” value ([5]; Postemergence, 16 g ai/ha) was 100. The “Plant response rating, Ryegrass, Italian” value ([5]; Postemergence, 31 g ai/ha) was 100, the “Plant response rating, Ryegrass, Italian” value ([5]; Preemergence, 4 g ai/ha) was 65 and the “Plant response rating, Dallisgrass” value ([6]; 4 g ai/ha, Postemergence) was 0. The “Plant response rating, Dallisgrass” value ([6]; 8 g ai/ha, Preemergence) was 40, the “Plant response rating, Dallisgrass” value ([6]; 16 g ai/ha, Preemergence) was 90 and the “Plant response rating, Dallisgrass” value ([6]; 31 g ai/ha, Preemergence) was 95. The “Plant response rating, Dallisgrass” value ([6]; Postemergence, 8 g ai/ha) was 30, the “Plant response rating, Dallisgrass” value ([6]; Postemergence, 16 g ai/ha) was 60 and the “Plant response rating, Dallisgrass” value ([6]; Postemergence, 31 g ai/ha) was 75. For the same compound, the “Plant response rating, Dallisgrass” value ([6]; Preemergence, 4 g ai/ha) was 20, the “Plant response rating, Sandbur, S.” value ([7]; 4 g ai/ha, Postemergence) was 90 and the “Plant response rating, Sandbur, S.” value ([7]; 16 g ai/ha, Preemergence) was 80. The “Plant response rating, Sandbur, S.” value ([7]; 31 g ai/ha, Preemergence) was 95, the “Plant response rating, Sandbur, S.” value ([7]; Postemergence, 8 g ai/ha) was 98 and the “Plant response rating, Sandbur, S.” value ([7]; Postemergence, 16 g ai/ha) was 98. For the same compound, the “Plant response rating, Sandbur, S.” value ([7]; Postemergence, 31 g ai/ha) was 100, the “Plant response rating, Sandbur, S.” value ([7]; Preemergence, 4 g ai/ha) was 0 and the “Plant response rating, Quackgrass” value ([8]; 4 g ai/ha, Postemergence) was 0. The “Plant response rating, Quackgrass” value ([8]; 16 g ai/ha, Preemergence) was 65, the “Plant response rating, Quackgrass” value ([8]; 31 g ai/ha, Preemergence) was 80 and the “Plant response rating, Quackgrass” value ([8]; Postemergence, 8 g ai/ha) was 15. The “Plant response rating, Quackgrass” value ([8]; Postemergence, 16 g ai/ha) was 75, the “Plant response rating, Quackgrass” value ([8]; Postemergence, 31 g ai/ha) was 80 and the “Plant response rating, Quackgrass” value ([8]; Preemergence, 4 g ai/ha) was 0. The “Plant response rating, Crabgrass, Large” value ([9]; 4 g ai/ha, Postemergence) was 30, the “Plant response rating, Crabgrass, Large” value ([9]; 8 g ai/ha, Preemergence) was 15 and the “Plant response rating, Crabgrass, Large” value ([9]; 16 g ai/ha, Preemergence) was 95. The “Plant response rating, Crabgrass, Large” value ([9]; 31 g ai/ha, Preemergence) was 100, the “Plant response rating, Crabgrass, Large” value ([9]; Postemergence, 8 g ai/ha) was 40 and the “Plant response rating, Crabgrass, Large” value ([9]; Postemergence, 16 g ai/ha) was 60. The “Plant response rating, Crabgrass, Large” value ([9]; Postemergence, 31 g ai/ha) was 80, the “Plant response rating, Crabgrass, Large” value ([9]; Preemergence, 4 g ai/ha) was 0 and the “Plant response rating, Chickweed” value [10] was 0. For the same compound, the “Plant response rating, Mustard, Black” value ([11]; 4 g ai/ha, Postemergence) was 0, the “Plant response rating, Mustard, Black” value ([11]; 8 g ai/ha, Preemergence) was 0 and the “Plant response rating, Mustard, Black” value ([11]; 16 g ai/ha, Preemergence) was 0. The “Plant response rating, Mustard, Black” value ([11]; 31 g ai/ha, Preemergence) was 0, the “Plant response rating, Mustard, Black” value ([11]; Postemergence, 8 g ai/ha) was 0 and the “Plant response rating, Mustard, Black” value ([11]; Postemergence, 16 g ai/ha) was 0. For the same compound, the “Plant response rating, Mustard, Black” value ([11]; Postemergence, 31 g ai/ha) was 0 and the “Plant response rating, Mustard, Black” value ([11]; Preemergence, 4 g ai/ha) was 0.
